Results on eight molecules are retold here after patent US20230398130A1, “METHODS AND COMPOSITIONS FOR DIFFERENTIATING STEM CELLS” (Massachusetts Institute of Technology, priority 2020, published 2023).

The test system of assay [1] is ISC-enriched organoids. Briefly: Primary screen, 384-well 2.5-D organoid differentiation (ENR+CD, 6 days): basal lysozyme secretion (LYZ.NS). The assay is classed as cell-based, murine. The following applies: primary screen; for Dose.FC.LYZ.NS (log 2 fold change): vs plate median. The text has this: (§1) High-throughput screening.
In assay [2] the test system is ISC-enriched organoids. The assay is described as follows: Primary screen, 384-well 2.5-D organoid differentiation (ENR+CD, 6 days, Target Selective Inhibitor Library, vs whole-plate median): ATP (CellTiter-Glo 3D, CTG). The settings on record: primary screen; for Dose.FC.CTG (log 2 fold change): vs plate median. (In general: Cellular ATP, detected with luciferase, serves as a proxy for viable cell number.)

Assay [3] relates to ISC-enriched organoids. Briefly: Primary screen, 384-well 2.5-D organoid differentiation (ENR+CD, 6 days): carbachol-induced lysozyme secretion (LYZ.S). Format: cell-based, murine. The following applies: primary screen, vs plate median.
From the text: as §1

`COc1c(C)c(C(=O)c2ccc(N)c(C(=O)[O-])c2)n2ccccc12.[Na+]` [SSR128129E]: the “Z.LYZ.NS (standard z score)” value in assay [1] (Dose 0.08 uM) is 0.807; in assay [1] (Dose 0.40 uM), 0.339; in assay [1] (Dose 2.00 uM), 0.257; in assay [1] (Dose 10.00 uM), −0.850. Further, the “Dose.FC.LYZ.NS (log 2 fold change)” value is 0.093 in assay [1] (Dose 0.08 uM), 0.039 in assay [1] (Dose 0.40 uM), 0.030 in assay [1] (Dose 2.00 uM) and −0.098 in assay [1] (Dose 10.00 uM). The “Z.CTG (standard z score)” value in assay [2] (Dose 0.08 uM) is recorded as 0.210; in assay [2] (Dose 0.40 uM), 0.545; in assay [2] (Dose 2.00 uM) it was 0.291; in assay [2] (Dose 10.00 uM), −0.063. For the same molecule, the “Dose.FC.CTG (log 2 fold change)” value in assay [2] (Dose 0.08 uM) is 0.088; in assay [2] (Dose 0.40 uM), 0.228; in assay [2] (Dose 2.00 uM) it was 0.122; in assay [2] (Dose 10.00 uM), −0.026. Further, the “Dose.FC.LYZ.S (log 2 fold change)” value is 0.086 in assay [3] (Dose 0.08 uM), 0.122 in assay [3] (Dose 0.40 uM), 0.023 in assay [3] (Dose 2.00 uM) and −0.095 in assay [3] (Dose 10.00 uM).
For the molecule `Cc1ccc(S(=O)(=O)Cc2nc(-c3ccc(C(=O)NCc4cccnc4)cc3)oc2C)cc1` [STF-118804], the “Z.LYZ.NS (standard z score)” value in assay [1] (Dose 0.08 uM) is −1.349; in assay [1] (Dose 0.40 uM) it was −1.824; in assay [1] (Dose 2.00 uM), −1.502; in assay [1] (Dose 10.00 uM), −1.541. The “Dose.FC.LYZ.NS (log 2 fold change)” value in assay [1] (Dose 0.08 uM) is recorded as −0.155; in assay [1] (Dose 0.40 uM), −0.210; in assay [1] (Dose 2.00 uM), −0.172; in assay [1] (Dose 10.00 uM) it was −0.177. Also, the “Z.CTG (standard z score)” value in assay [2] (Dose 0.08 uM) is −0.360; in assay [2] (Dose 0.40 uM) it was −3.346; in assay [2] (Dose 2.00 uM), −2.189; in assay [2] (Dose 10.00 uM) it was −3.195. For the same molecule, the “Dose.FC.CTG (log 2 fold change)” value is −0.151 in assay [2] (Dose 0.08 uM), −1.401 in assay [2] (Dose 0.40 uM), −0.916 in assay [2] (Dose 2.00 uM) and −1.338 in assay [2] (Dose 10.00 uM). Further, the “Dose.FC.LYZ.S (log 2 fold change)” value in assay [3] (Dose 0.08 uM) is given as −0.257; in assay [3] (Dose 0.40 uM) it was −0.212; in assay [3] (Dose 2.00 uM), −0.271; in assay [3] (Dose 10.00 uM), −0.300.
For `O=C(/C=C/c1ccccc1)NC(NC(=S)Nc1ccc(Cl)cc1)C(Cl)(Cl)Cl` (stereo not shown) [Sal003], the “Z.LYZ.NS (standard z score)” value in assay [1] (Dose 0.08 uM) was 1.013; in assay [1] (Dose 0.40 uM), 1.595; in assay [1] (Dose 2.00 uM), 0.670; in assay [1] (Dose 10.00 uM), −2.142. Besides, the “Dose.FC.LYZ.NS (log 2 fold change)” value is recorded as 0.116 in assay [1] (Dose 0.08 uM), 0.183 in assay [1] (Dose 0.40 uM), 0.077 in assay [1] (Dose 2.00 uM) and −0.246 in assay [1] (Dose 10.00 uM). Further, the “Z.CTG (standard z score)” value was 0.456 in assay [2] (Dose 0.08 uM), 0.370 in assay [2] (Dose 0.40 uM), 0.468 in assay [2] (Dose 2.00 uM) and −1.981 in assay [2] (Dose 10.00 uM). The “Dose.FC.CTG (log 2 fold change)” value in assay [2] (Dose 0.08 uM) is recorded as 0.191; in assay [2] (Dose 0.40 uM), 0.155; in assay [2] (Dose 2.00 uM), 0.196; in assay [2] (Dose 10.00 uM), −0.829. Besides, the “Dose.FC.LYZ.S (log 2 fold change)” value in assay [3] (Dose 0.08 uM) is recorded as 0.092; in assay [3] (Dose 0.40 uM) it was 0.067; in assay [3] (Dose 2.00 uM), 0.040; in assay [3] (Dose 10.00 uM), −0.408.
On to `Cn1cnc2c(F)c(Nc3ccc(Br)cc3Cl)c(C(=O)NOCCO)cc21` [Selumetinib (AZD6244)], for which the “Z.LYZ.NS (standard z score)” value is listed as 0.181 in assay [1] (Dose 0.08 uM), −0.188 in assay [1] (Dose 0.40 uM), −0.847 in assay [1] (Dose 2.00 uM) and −1.220 in assay [1] (Dose 10.00 uM). Further, the “Dose.FC.LYZ.NS (log 2 fold change)” value was 0.021 in assay [1] (Dose 0.08 uM), −0.022 in assay [1] (Dose 0.40 uM), −0.097 in assay [1] (Dose 2.00 uM) and −0.140 in assay [1] (Dose 10.00 uM). Also, the “Z.CTG (standard z score)” value in assay [2] (Dose 0.08 uM) is 0.393; in assay [2] (Dose 0.40 uM) it was −0.395; in assay [2] (Dose 2.00 uM), −0.613; in assay [2] (Dose 10.00 uM), −2.035. Moreover, the “Dose.FC.CTG (log 2 fold change)” value is 0.164 in assay [2] (Dose 0.08 uM), −0.165 in assay [2] (Dose 0.40 uM), −0.257 in assay [2] (Dose 2.00 uM) and −0.852 in assay [2] (Dose 10.00 uM). The “Dose.FC.LYZ.S (log 2 fold change)” value in assay [3] (Dose 0.08 uM) was 0.004; in assay [3] (Dose 0.40 uM), −0.047; in assay [3] (Dose 2.00 uM), −0.175; in assay [3] (Dose 10.00 uM), −0.211.
`CC(C)[C@H](O)C(=O)N[C@@H](C)C(=O)N[C@@H]1C(=O)N(C)CCc2ccccc21` [Semagacestat (LY450139)]: the “Z.LYZ.NS (standard z score)” value in assay [1] (Dose 0.08 uM) is on record as 0.151; in assay [1] (Dose 0.40 uM), −0.181; in assay [1] (Dose 2.00 uM), −0.704; in assay [1] (Dose 10.00 uM), −0.942. Further, the “Dose.FC.LYZ.NS (log 2 fold change)” value is reported as 0.017 in assay [1] (Dose 0.08 uM), −0.021 in assay [1] (Dose 0.40 uM), −0.081 in assay [1] (Dose 2.00 uM) and −0.108 in assay [1] (Dose 10.00 uM). The “Z.CTG (standard z score)” value is listed as 0.338 in assay [2] (Dose 0.08 uM), −0.494 in assay [2] (Dose 0.40 uM), −0.306 in assay [2] (Dose 2.00 uM) and −2.045 in assay [2] (Dose 10.00 uM). For the same molecule, the “Dose.FC.CTG (log 2 fold change)” value in assay [2] (Dose 0.08 uM) is 0.141; in assay [2] (Dose 0.40 uM), −0.207; in assay [2] (Dose 2.00 uM), −0.128; in assay [2] (Dose 10.00 uM) it was −0.856. For the same molecule, the “Dose.FC.LYZ.S (log 2 fold change)” value in assay [3] (Dose 0.08 uM) was −0.014; in assay [3] (Dose 0.40 uM), −0.006; in assay [3] (Dose 2.00 uM), −0.081; in assay [3] (Dose 10.00 uM) it was −0.162.
Regarding `Nc1ccc(C(=O)[O-])c(O)c1.[Na+]` [Sodium 4-Aminosalicylate], the “Z.LYZ.NS (standard z score)” value stood at 0.695 in assay [1] (Dose 0.08 uM), 0.354 in assay [1] (Dose 0.40 uM), 1.354 in assay [1] (Dose 2.00 uM) and 0.796 in assay [1] (Dose 10.00 uM). Besides, the “Dose.FC.LYZ.NS (log 2 fold change)” value is listed as 0.080 in assay [1] (Dose 0.08 uM), 0.041 in assay [1] (Dose 0.40 uM), 0.156 in assay [1] (Dose 2.00 uM) and 0.091 in assay [1] (Dose 10.00 uM). Moreover, the “Z.CTG (standard z score)” value is 0.283 in assay [2] (Dose 0.08 uM), 0.488 in assay [2] (Dose 0.40 uM), 0.092 in assay [2] (Dose 2.00 uM) and 0.590 in assay [2] (Dose 10.00 uM). The “Dose.FC.CTG (log 2 fold change)” value in assay [2] (Dose 0.08 uM) is 0.119; in assay [2] (Dose 0.40 uM), 0.204; in assay [2] (Dose 2.00 uM) it was 0.038; in assay [2] (Dose 10.00 uM), 0.247. The “Dose.FC.LYZ.S (log 2 fold change)” value turned out to be 0.162 in assay [3] (Dose 0.08 uM), 0.050 in assay [3] (Dose 0.40 uM), 0.099 in assay [3] (Dose 2.00 uM) and 0.143 in assay [3] (Dose 10.00 uM).
Take `O=[N+]([O-])c1ccc2c(c1)S(=O)(=O)C=C2` [Stattic]: the “Z.LYZ.NS (standard z score)” value is recorded as 1.131 in assay [1] (Dose 0.08 uM), 0.189 in assay [1] (Dose 0.40 uM), 1.276 in assay [1] (Dose 2.00 uM) and −0.186 in assay [1] (Dose 10.00 uM). In addition, the “Dose.FC.LYZ.NS (log 2 fold change)” value in assay [1] (Dose 0.08 uM) is 0.130; in assay [1] (Dose 0.40 uM) it was 0.022; in assay [1] (Dose 2.00 uM) it was 0.147; in assay [1] (Dose 10.00 uM), −0.021. Moreover, the “Z.CTG (standard z score)” value is recorded as −0.191 in assay [2] (Dose 0.08 uM), −0.011 in assay [2] (Dose 0.40 uM), 0.078 in assay [2] (Dose 2.00 uM) and −0.060 in assay [2] (Dose 10.00 uM). The “Dose.FC.CTG (log 2 fold change)” value in assay [2] (Dose 0.08 uM) is recorded as −0.080; in assay [2] (Dose 0.40 uM), −0.005; in assay [2] (Dose 2.00 uM), 0.033; in assay [2] (Dose 10.00 uM), −0.025. Moreover, the “Dose.FC.LYZ.S (log 2 fold change)” value in assay [3] (Dose 0.08 uM) is reported as 0.150; in assay [3] (Dose 0.40 uM), 0.033; in assay [3] (Dose 2.00 uM), 0.082; in assay [3] (Dose 10.00 uM) it was −0.019.
For the molecule `Cc1cn([C@H]2C=C[C@@H](CO)O2)c(=O)[nH]c1=O` [Stavudine (d4T)], the “Z.LYZ.NS (standard z score)” value in assay [1] (Dose 0.08 uM) is recorded as 0.620; in assay [1] (Dose 0.40 uM), 0.027; in assay [1] (Dose 2.00 uM) it was 0.074; in assay [1] (Dose 10.00 uM) it was −0.828. The “Dose.FC.LYZ.NS (log 2 fold change)” value in assay [1] (Dose 0.08 uM) is listed as 0.071; in assay [1] (Dose 0.40 uM) it was 0.003; in assay [1] (Dose 2.00 uM) it was 0.009; in assay [1] (Dose 10.00 uM) it was −0.095. The “Z.CTG (standard z score)” value was 0.226 in assay [2] (Dose 0.08 uM), 0.351 in assay [2] (Dose 0.40 uM), 0.179 in assay [2] (Dose 2.00 uM) and −0.179 in assay [2] (Dose 10.00 uM). For the same molecule, the “Dose.FC.CTG (log 2 fold change)” value in assay [2] (Dose 0.08 uM) was 0.095; in assay [2] (Dose 0.40 uM), 0.147; in assay [2] (Dose 2.00 uM), 0.075; in assay [2] (Dose 10.00 uM), −0.075. Further, the “Dose.FC.LYZ.S (log 2 fold change)” value in assay [3] (Dose 0.08 uM) is reported as 0.134; in assay [3] (Dose 0.40 uM), 0.001; in assay [3] (Dose 2.00 uM), −0.003; in assay [3] (Dose 10.00 uM) it was −0.120.
